Reference: patent publication US10323013B2, “Inhibitors of the IRE-1/XBP-1 pathway and methods of using thereof” (H. LEE MOFFITT CANCER CENTER AND RESEARCH INSTITUTE, INC., priority 2013, dated 2019)
Where “and” joins values, the source holds several entries; their conditions need not be identical. Equal entries are not always repeated. Where two headings read alike, the source gives them in different places.

What was measured:
WaC3 cells = experiment: Cell proliferation XTT assay, WaC3; format: cell-based, human; settings: for growth response (in words): WaC3, 50 μM, course of 4 days
Description: (§1) Eμ-TCL1, MEC1, MEC2, WaC3, or primary human CLL cells were grown in 96-well cell culture plates overnight and then treated with fresh phenol red-free culture medium containing STF-083010 (50 μM), A-I06 (50 μM), A-I07 (50 μM) or fludarabine (30 μM). […] Briefly, 50 μl XTT labeling reagent was combined with 100 μl electron-coupling reagent, and the mixture was applied to each well of the 96-well plates. The test was based on cleavage of the yellow tetrazolium salt XTT by mitochondrial dehydrogenases of the metabolic active cells to form the orange formazan compound, which can be spectrophotometrically quantified at 492 nm using a BioTek microplate reader.

[1] = system: Eμ-TCL1 mice with high CLL burden; format: in vivo; settings: A-I06 60 mg/kg i.p.
Description: Older Eμ-TCL1 mice (age >8 months) with high CLL burden in the peripheral blood were identified by examining the percentage of CLL cells in PBMCs. These mice then received intraperitoneal injections with A-I06 (60 mg/kg) dissolved in Cremophor® ELP (vehicle, Sigma). The progression of CLL was monitored by flow cytofluorometry.

Eμ-TCL1 CLL cells [2] = experiment: Cell proliferation XTT assay, Eμ-TCL1 CLL cells; format: cell-based, mouse; settings: 50 μM, after 3 days
Description: as §1

Eμ-TCL1 CLL cells [3] = experiment: Annexin V/DAPI flow cytofluorometry of cultured Eμ-TCL1 CLL cells; format: cell-based, mouse; settings: 50 μM or 100 μM for 24 h
Description: PBMCs were non-lethally obtained from mice following the submandibular bleed and RBC lysis (Qiagen). Nonspecific staining was first blocked for 30 min at 4° C. with 300 μl FBS per 1.0×10^6 cells. Cell surface staining was accomplished by 30-min incubation at 4° C. with 1 μl per 1.0×10^6 cells of the following anti-mouse antibodies: B220-Alexa488, CD19-APC-Cy7 (BD Pharmingen), IgM-Alexa568 (Invitrogen), CD5-APC (eBioscience) and CD138-PE (BD Pharmingen). Viability staining was accomplished using DAPI exclusion (10 μg/ml; 200 μl/1×10^6 cells) during acquisition. Apoptotic cells were detected by Annexin V-PE staining (BD Pharmingen). Acquisition of B-cell and CLL cell populations was performed on a LSRII cytometer (BD Biosciences) harboring a custom configuration for the H. Lee Moffitt Cancer Center & Research Institute, having multiple laser beams and detectors for excitation of various fluorophores and wide emission spectrum detection. Mid-range Spherotech FL1 fluorescent rainbow beads (BD Biosciences) were used to maintain consistent gains for all parameters across time points. Analysis of cytometry data was achieved using FlowJo software version 7.6.1 (Tree Star Inc.).

recombinant hIRE-1 = recombinant hIRE-1 (Homo sapiens (Human), UniProt O75460); experiment: In vitro IRE-1 RNase FRET-suppression assay; format: biochemical
recombinant hIRE-1, sequence (O75460 547-977): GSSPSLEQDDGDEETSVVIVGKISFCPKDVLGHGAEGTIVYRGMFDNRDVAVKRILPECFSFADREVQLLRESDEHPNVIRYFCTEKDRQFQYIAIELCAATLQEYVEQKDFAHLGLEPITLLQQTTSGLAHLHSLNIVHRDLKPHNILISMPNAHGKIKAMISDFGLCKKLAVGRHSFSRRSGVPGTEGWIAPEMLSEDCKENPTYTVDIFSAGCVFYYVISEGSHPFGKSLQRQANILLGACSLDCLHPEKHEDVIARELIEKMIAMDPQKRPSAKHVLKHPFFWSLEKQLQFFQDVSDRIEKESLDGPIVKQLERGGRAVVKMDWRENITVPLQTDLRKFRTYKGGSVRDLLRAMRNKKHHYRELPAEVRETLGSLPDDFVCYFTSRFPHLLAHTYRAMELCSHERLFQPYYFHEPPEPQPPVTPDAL
Description: Fluorescence was read at various time points using a Biotek Synergy H1 plate reader with excitation and emission at 620 nm and 680 nm, respectively. […] All fluorescence readings were corrected using background values from wells containing only 120 μL of 50 nM XBP-1 RNA.
Fluorescence was read at various time points using a Biotek Synergy H1 plate reader with excitation and emission at 620 nm and 680 nm, respectively. […] All fluorescence readings were corrected using background values from wells containing only 120 mL of 50 nM XBP-1 RNA.

MEC1 cells = experiment: Cell proliferation XTT assay, MEC1; format: cell-based, human; settings: MEC1, 50 μM, first 48 h
Description: as §1

primary human CLL cells = experiment: Cell proliferation XTT assay, primary human CLL cells; format: cell-based; settings: primary human CLL cells, 50 μM, 3 days
Description: as §1

MEC2 cells = experiment: Cell proliferation XTT assay, MEC2; format: cell-based, human; settings: MEC2, 50 μM, first 48 h
Description: as §1

XBP-1s expression = experiment: Inhibition of XBP-1s expression in LPS-stimulated mouse B cells (immunoblots); format: cell-based; settings: for inhibition of XBP-1s expression (in words): LPS 48 h, then inhibitor 20 μM for 24 h (Example 3 prints 20 mM); for inhibition of XBP-1 expression (in words): inhibitor 50 μM (b479 prints 50 mM), also Eμ-TCL1 CLL and WaC3 cells
Description: The protein concentrations of the supernatants were determined by BCA assay (Pierce). […] Proteins were transferred to nitrocellulose membranes, blocked in 5% milk (wt/vol in PBS), and immunoblotted with the indicated antibodies and appropriate horseradish peroxidase-conjugated secondary antibodies. Following multiple washes in PBS, the blots were developed using Western Lighting Chemiluminescence Reagent (Perkin-Elmer).
Protein concentrations were determined by BCA assays (Pierce). […] Proteins were transferred to nitrocellulose membranes, blocked in 5% non-fat milk (wt/vol in PBS), and immunoblotted with indicated primary antibodies and appropriate horseradish peroxidase-conjugated secondary antibodies. Immunoblots were developed using Western Lighting Chemiluminescence Reagent (Perkin-Elmer).

[4] = Degradation (chemical stability) studies by HPLC/LCMS; format: physicochemical; settings: over 12 hours, rt
Description: The degradation of analog 24 was plotted as a function of time upon exposure to FRET-suppression assay buffer at rt. Aliquots were partitioned with MeOH and injected onto LCMS (UV monitored at 320 nm) and peaks integrated relative to internal standard.
A 20 mM stock solution of B-I09 in DMSO was diluted to 0.5 mM in FRET assay buffer (20 mM HEPES, pH 7.5, 50 mM KOAc, 0.5 mM MgCl2, 3 mM DTT, 0.4% PEG) or cell culture media (RPMI supplemented with 10% fetal bovine serum). The FRET assay buffer and cell culture media solutions were incubated at room temperature and 37° C., respectively. At various time points, a 50 μL aliquot of each solution was added to 50 μL of methanol and the mixture analyzed by analytical reverse-phase HPLC (C18 4 mm×150 mm column, 1 mL/min flow rate) with acetonitrile/water (0.1% formic acid) as eluent. Absorbance was read at 320 nm and the degradation product (aldehyde) was identified by LCMS and co-injection with pure synthetic sample. Degradation studies were carried out in duplicate and data points reported as the mean of two values.

XBP-1 mRNA splicing = XBP-1 mRNA splicing by RT-PCR; format: cell-based; settings: human WaC3 CLL cells, 24 h
Description: Total RNA was isolated using TRIzol reagent (Invitrogen). Complementary DNA was synthesized from RNA using Superscript II reverse transcriptase (Invitrogen).

[5] = Aqueous solubility (stated in words); format: physicochemical
[6] = STF-083010 stability studies by RP-HPLC; format: physicochemical
Description: STF-083010 stability studies were performed using analytical reverse-phase high pressure liquid chromatography (RP-HPLC) with a C18 column (4 mm×150 mm) and a 10-90% linear gradient of acetonitrile in water (containing 0.1% formic acid) as eluent over 20 minutes (1 ml/min flow rate). Compounds were detected at λ=254 nm. Crystalline STF-083010 was analyzed on a standard Bruker X8 Apex2 CCD-based X-ray diffractometer, and the solid-state structure was solved and refined with the Bruker SHELXTL (version 6.12) software package. Diffraction data (excluding structure factors) for STF-083010 have been deposited with the Cambridge Crystallographic Data Centre as supplementary CCDC publication number 850879.

[7] = text values of Example 3, unit printed as mM, read-out: IC50 in FRET-suppression assay

O=Cc1c(O)ccc2ccccc12 [A-I06, 2-hydroxynaphthaldehyde]
growth response (in words) (WaC3 cells): gradually decreased growth
GI50 (WaC3 cells; read-out: GI50 (50% growth inhibition concentration), WaC3 cells, 48 h, XTT): ~50 µM
apoptosis of CD5+/B220+ CLL cells in treated mice (in words) [1]: increase of Annexin V+ apoptotic CD5+/B220+CLL cells
apoptosis of CD5−/B220+ B cells in treated mice (in words) [1]: does not induce CD5−/B220+ B cells to undergo apoptosis
CLL burden (in words) ([1]; Day 0, 1, 12, 13): reduced CLL burden
growth inhibition (Eμ-TCL1 CLL cells [2]): ~70%
apoptosis (in words) (Eμ-TCL1 CLL cells [3]): Increased apoptosis
IRE-1 RNase inhibitory activity in FRET-suppression assay (in words) (recombinant hIRE-1): weaker activity
IC50 (recombinant hIRE-1; [7]): 9.73 mM
growth inhibition (MEC1 cells): ~20%
cytotoxic effect (in words) (primary human CLL cells): significant cytotoxic effect
growth inhibition (MEC2 cells): ~20%
inhibition of XBP-1s expression (in words) (XBP-1s expression): requires a higher concentration to achieve complete inhibition
inhibition of XBP-1 expression (in words) (XBP-1s expression): can suppress the expression of XBP-1
inhibition of XBP-1 expression (in words) (XBP-1s expression; listed as 2): strong inhibition

O=Cc1c(O)ccc2ccccc12 [A-I07]
IRE-1 RNase inhibitory activity in FRET-suppression assay (in words) (recombinant hIRE-1): no appreciable inhibition at 20 mM

O=S(=O)(NCc1c(O)ccc2ccccc12)c1cccs1 [B-A05]
inhibition of XBP-1 expression (in words) (XBP-1s expression): did not significantly alter XBP-1 expression

Cc1cc(=O)oc2c(C=O)c(O)ccc12 [Compound 4μ8C, 7-hydroxy-4-methyl-2-oxo-2H-chromene-8-carbaldehyde]
IC50 (recombinant hIRE-1; 5 nM hIRE-1, 50 nM XBP-1 RNA, read-out: IC50 in FRET-suppression assay): 0.000155 mM and 0.000206 mM
inhibition of XBP-1s expression (in words) (XBP-1s expression): strong inhibition

C=CCOC(=O)N1CCc2c(c(=O)oc3c(C=O)c(O)ccc23)C1 [Compound 21b, Allyl 7-formyl-8-hydroxy-5-oxo-4,5-dihydro-1H-chromeno[3,4-c]pyridine-3(2H)-carboxylate]
IC50 (XBP-1s expression; Mus musculus, B-cell, LPS-stimulated B cells, 24 h, immunoblots, densitometry, approximate, read-out: IC50 for suppressing XBP-1s expression): ~5.1 µM

C=CCOC(=O)N1CCc2c(c(=O)oc3c(C4OCCCO4)c(O)ccc23)C1 [Compound 24, allyl 7-(1,3-dioxan-2-yl)-8-hydroxy-5-oxo-4,5-dihydro-1H-chromeno[3,4-c]pyridine-3(2H)-carboxylate]
decomposition of the 1,3-dioxane moiety in assay buffer (in words) [4]: no significant decomposition
inhibition of splicing of XBP-1 mRNA (in words) (XBP-1 mRNA splicing): highly effective

C=CCOC(=O)N1CCc2c(c(=O)oc3c(C=O)c(OCc4ccccc4)ccc23)C1 [Compound 27, allyl 7-formyl-8-benzyloxy-5-oxo-4,5-dihydro-1H-chromeno[3,4-c]pyridine-3(2H)-carboxylate]
IRE-1 RNase inhibitory activity in FRET-suppression assay (in words) (recombinant hIRE-1): complete loss of potency below 20 mM
IC50 (recombinant hIRE-1; In vitro IRE-1 RNase inhibition by analogs of 21b, FRET-suppression assay, read-out: IC50): > 0.02 mM

N=C(N)N1CCc2c(c(=O)oc3c(C=O)c(O)ccc23)C1 [Compound 34, 7-Formyl-8-hydroxy-5-oxo-4,5-dihydro-1H-chromeno[3,4-c]pyridine-3(2H)-carboximidamide]
solubility (in words) [5]: solubility decreased
inhibition of XBP-1s expression (in words) (XBP-1s expression): did not effectively inhibit XBP-1s expression

O=S(=O)(N=Cc1c(O)ccc2ccccc12)c1cccs1 [STF-083010]
growth response (in words) (WaC3 cells): gradually decreased growth
growth inhibition (Eμ-TCL1 CLL cells [2]): ~70%
IC50 (recombinant hIRE-1; [7]): 9.94 mM
growth inhibition (MEC1 cells): ~20%
stability in 1:1 DMSO:water mixture (in words) ([6]; brief exposure): complete decomposition
stability of DMSO stock solutions (in words) ([6]; repeated freeze-thaw cycles): readily hydrolyzed into precursors A-I06 and A-I07
cytotoxic effect (in words) (primary human CLL cells): significant cytotoxic effect
growth inhibition (MEC2 cells): ~20%
inhibition of XBP-1 expression (in words) (XBP-1s expression): can suppress the expression of XBP-1
